From patent publication US20210244057A1, “SWEETENER POWDER COMPOSITION AND PREPARATION METHOD THEREFOR” (SAMYANG CORPORATION, priority 2018, published 2021)

Experiments:
[1] = Sensory evaluation of sweetener powder by 15 panelists; format: in vivo; conditions: score on a scale of 5 points, 10% Brix solution
Description: For the sensory evaluation, the powders prepared in Examples 5 and 6 were used as an experimental group, and sugar was used as a control group. Each sample was dissolved to a concentration of 10% Brix and prepared to become the same temperature. 10 ml of each sample was collected and provided. It was expressed as a three-digit number randomly extracted using a random number table. The sample presentation order was always randomly determined, and a lukewarm water that could rinse the mouth was provided together to inspectors. The sensory laboratory was maintained at a constant temperature (25±1° C.) and no odor.
The sensory inspectors selected 15 panelists who have a high level of understanding of sensory tests and have experience in sensory tests. Training was conducted three times a week for one month, and it took an average of 30 minutes for each training session. As for the content and method of evaluation, the score was evaluated on a scale of 5 points for the intensity of sweet taste, persistence of sweet taste, body taste, and bitter taste of the control group and the experimental group. The criteria of sweet taste intensity was compared with the standard sample sugar 10% solution as 4.5 points. The closer to 1 point, the lighter the body taste, and the closer to 5 points, the heavier the taste was.

[2] = Glass transition temperature (Tg) by differential scanning calorimetry (DSC), ASTM D3418; format: physicochemical; conditions: raw material: crystalline allulose in powder state
Description: In order to measure the glass transition temperature value (Tg) of the powder product obtained in Examples 1 to 4, and Example 6, differential scanning calorimetry (DSC) analysis was performed according to the method of ASTM D3418, and the specific DSC analysis conditions are as follows.
Equipment name: DSC[differential scanning calorimetry]
Manufacturer: Perkin Elmer
Method: 30 to 250° C., 10° C./min temperature rise, N2 gas purge
The liquid product of Comparative Example 1 was not spray-dried, and measured by the glass transition temperature of the powder obtained by freeze-drying the liquid product. Allulose was measured by the glass transition temperature of crystalline allulose, Reference Example 2 was measured by the glass transition temperature of commercially available indigestible maltodextrin (Samyang Corporation, indigestible maltodextrin, DE 14.9, dietary fiber content 85%), and Reference Example 3 and Reference Example 4 were measured by pulverizing commercially available maltodextrin (Samyang Corporation., Genedex) and commercially available starch syrup (Samyang Corporation, low-intensity starch syrup) at the glass transition temperature.

| Tg [2] | Compound | Body taste ([1]; 1 = lighter, 5 = heavier) | Bitter residual taste [1] | Sweet taste persistence [1] | Sweet taste ([1]; sugar 10% solution standard = 4.5 points) |
| --- | --- | --- | --- | --- | --- |
|  | OC[C@H]1O[C@@](CO)(O[C@H]2O[C@H](CO)[C@@H](O)[C@H](O)[C@H]2O)[C@@H](O)[C@@H]1O [Control group, sugar] | 3.3 | 2.2 | 3.2 | 4.3 |
| −5.5 °C | O=C(CO)C(O)C(O)C(O)CO (centres unmarked) [Crystalline allulose, allulose] |  |  |  |  |
